Measurements from patent US12077503B2, “Substituted cyclic amides and their use as herbicides” (FMC CORPORATION, priority 2015, dated 2024).

How the values were obtained:
Assay type in all cases: in vivo
[1] = tested on: ryegrass, Italian (Italian ryegrass, Lolium multiflorum); assay: Test A postemergence; conditions: Lolium multiflorum, post-emergence, 240 h, postemergence
Summary of the method: (§1)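 Greenhouse, ~10 d after spray; visual injury vs untreated controls, 0 = no effect, 100 = complete control. Preemergence: directed soil spray over planted seeds. Postemergence: plants 2–10 cm, 1–2 leaf stage. Loam/sand blend. Compound in non-phytotoxic solvent with surfactant.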

[2] = tested on: giant foxtail (Setaria faberii); assay: Test A postemergence; conditions: Setaria faberi, post-emergence, 240 h, postemergence
Summary of the method: as §1

[3] = tested on: wheat (Triticum aestivum); assay: Test A postemergence; conditions: Triticum aestivum, post-emergence, 240 h, 125 g ai/ha, postemergence, visual injury vs untreated controls after approx. 10 d; 0 = no effect, 100 = complete control; read-out: Wheat plant response rating (0 to 100 scale)
Summary of the method: as §1

corn (Zea mays) = assay: Test A postemergence; conditions: Zea mays, post-emergence, 240 h, postemergence
Summary of the method: as §1

[4] = tested on: Galium (catchweed bedstraw, Galium aparine); assay: Test A postemergence; conditions: Galium, post-emergence, 240 h, postemergence
Summary of the method: as §1

[5] = tested on: ragweed (common ragweed, Ambrosia elatior); assay: Test A postemergence; conditions: Ambrosia artemisiifolia, post-emergence, 240 h, postemergence
Summary of the method: as §1

[6] = tested on: blackgrass (Alopecurus myosuroides); assay: Test A postemergence; conditions: Alopecurus myosuroides, post-emergence, 240 h, postemergence
Summary of the method: as §1

[7] = tested on: barnyardgrass (Echinochloa crus-galli); assay: Test A postemergence; conditions: Echinochloa crus-galli, post-emergence, 240 h, postemergence
Summary of the method: as §1

[8] = tested on: pigweed (Amaranthus retroflexus); assay: Test A postemergence; conditions: Amaranthus retroflexus, post-emergence, 240 h, postemergence
Summary of the method: as §1

[9] = tested on: ryegrass, Italian (Italian ryegrass, Lolium multiflorum); assay: Test A preemergence; conditions: Lolium multiflorum, pre-emergence, 240 h, preemergence, 0 to 100 scale where 0 is no effect and 100 is complete control, read-out: Ryegrass, Italian plant response rating
Summary of the method: as §1

Kochia (Kochia scoparia) = assay: Test A preemergence; conditions: Bassia scoparia, pre-emergence, 240 h, preemergence, 0 to 100 scale where 0 is no effect and 100 is complete control, read-out: Kochia plant response rating
Summary of the method: as §1

[10] = tested on: giant foxtail (Setaria faberii); assay: Test A preemergence; conditions: Setaria faberi, pre-emergence, 240 h, preemergence, 0 to 100 scale where 0 is no effect and 100 is complete control, read-out: Foxtail, Giant plant response rating
Summary of the method: as §1

[11] = tested on: ragweed (common ragweed, Ambrosia elatior); assay: Test A preemergence; conditions: Ambrosia artemisiifolia, pre-emergence, 240 h, preemergence, 0 to 100 scale where 0 is no effect and 100 is complete control, read-out: Ragweed plant response rating
Summary of the method: as §1

[12] = tested on: barnyardgrass (Echinochloa crus-galli); assay: Test A preemergence; conditions: Echinochloa crus-galli, pre-emergence, 240 h, preemergence, 0 to 100 scale where 0 is no effect and 100 is complete control, read-out: Barnyardgrass plant response rating
Summary of the method: as §1

[13] = tested on: pigweed (Amaranthus retroflexus); assay: Test A preemergence; conditions: Amaranthus retroflexus, pre-emergence, 240 h, preemergence, 0 to 100 scale where 0 is no effect and 100 is complete control, read-out: Pigweed plant response rating
[14] = 125 g ai/ha, visual injury rating, approximately 10 d

Cc1cccc([C@H]2CN(C)C(=O)[C@@H]2C(=O)Nc2cccc(F)c2C)c1 [Compound 1233]
pest or weed control at 125 g/ha ([1]; 125 g ai/ha, visual injury vs untreated controls after approx. 10 d, 0 = no effect, 100 = complete control, read-out: Ryegrass, Italian plant response rating (0 to 100 scale)): 40% | pest or weed control at 500 g/ha ([1]; 500 g ai/ha, 0 to 100 scale, 0 is no effect, 100 is complete control, read-out: Ryegrass, Italian plant response rating): 50% | pest or weed control at 125 g/ha ([2]; 125 g ai/ha, visual injury vs untreated controls after approx. 10 d, 0 = no effect, 100 = complete control, read-out: Foxtail, Giant plant response rating (0 to 100 scale)): 80% | pest or weed control at 500 g/ha ([2]; 500 g ai/ha, 0 to 100 scale, 0 is no effect, 100 is complete control, read-out: Foxtail, Giant plant response rating): 90% | plant injury at 125 g/ha [3]: 40% | plant injury at 125 g/ha (corn (Zea mays); 125 g ai/ha, visual injury vs untreated controls after approx. 10 d, 0 = no effect, 100 = complete control, read-out: Corn plant response rating (0 to 100 scale)): 70% | plant injury at 500 g/ha (corn (Zea mays); 500 g ai/ha, 0 to 100 scale, 0 is no effect, 100 is complete control, read-out: Corn plant response rating): 80% | pest or weed control at 125 g/ha ([4]; 125 g ai/ha, visual injury vs untreated controls after approx. 10 d, 0 = no effect, 100 = complete control, read-out: Galium plant response rating (0 to 100 scale)): 20% | pest or weed control at 500 g/ha ([4]; 500 g ai/ha, 0 to 100 scale, 0 is no effect, 100 is complete control, read-out: Galium plant response rating): 60% | pest or weed control at 125 g/ha ([5]; 125 g ai/ha, visual injury vs untreated controls after approx. 10 d, 0 = no effect, 100 = complete control, read-out: Ragweed plant response rating (0 to 100 scale)): 0% | pest or weed control at 500 g/ha ([5]; 500 g ai/ha, 0 to 100 scale, 0 is no effect, 100 is complete control, read-out: Ragweed plant response rating): 30% | pest or weed control at 125 g/ha ([6]; 125 g ai/ha, visual injury vs untreated controls after approx. 10 d, 0 = no effect, 100 = complete control, read-out: Blackgrass plant response rating (0 to 100 scale)): 0% | pest or weed control at 500 g/ha ([6]; 500 g ai/ha, 0 to 100 scale, 0 is no effect, 100 is complete control, read-out: Blackgrass plant response rating): 40% | pest or weed control at 125 g/ha ([7]; 125 g ai/ha, visual injury vs untreated controls after approx. 10 d, 0 = no effect, 100 = complete control, read-out: Barnyardgrass plant response rating (0 to 100 scale)): 80% | pest or weed control at 500 g/ha ([7]; 500 g ai/ha, 0 to 100 scale, 0 is no effect, 100 is complete control, read-out: Barnyardgrass plant response rating): 80% | pest or weed control at 125 g/ha ([8]; 125 g ai/ha, visual injury vs untreated controls after approx. 10 d, 0 = no effect, 100 = complete control, read-out: Pigweed plant response rating (0 to 100 scale)): 0% | pest or weed control at 500 g/ha ([8]; 500 g ai/ha, 0 to 100 scale, 0 is no effect, 100 is complete control, read-out: Pigweed plant response rating): 20% | pest or weed control at 125 g/ha [9, 14]: 40% | pest or weed control at 500 g/ha ([9]; 500 g ai/ha): 70% | pest or weed control at 125 g/ha (Kochia (Kochia scoparia); [14]): 70% | pest or weed control at 500 g/ha (Kochia (Kochia scoparia); 500 g ai/ha): 70% | pest or weed control at 125 g/ha [10, 14]: 90% | pest or weed control at 500 g/ha ([10]; 500 g ai/ha): 90% | pest or weed control at 125 g/ha [11, 14]: 30% | pest or weed control at 500 g/ha ([11]; 500 g ai/ha): 50% | pest or weed control at 125 g/ha [12, 14]: 90% | pest or weed control at 500 g/ha ([12]; 500 g ai/ha): 90% | pest or weed control at 125 g/ha [13, 14]: 40% | pest or weed control at 500 g/ha ([13]; 500 g ai/ha): 40%
